Source: patent US7368453B2, “Quinazolinone compounds with reduced bioaccumulation” (Chiron Corporation, priority 2003, dated 2008)
Read-outs that look alike come from different tables or passages of the source.

Assay: Tissue half-life (t1/2) and Cmax in plasma, brain, kidney and liver after oral administration to CD-1 mice
Format: in vivo, mouse
Conditions: male, mouse
Method: In vivo studies were conducted to observe the effect of the compounds of the invention in the subject animal. Male CD-1 mice, body weight of 20 grams at arrival, were used in these studies. Mice were given 30 mg/kg of compound in HPMC/Tween solution or suspension via oral gavage. Plasma, brain, and liver samples were collected at time periods of 1, 2, 4, 8, and 24 hours post dosing. One mouse was used per time point. Thus, a total of 5 mice were used for each compound tested. For sample collection, mice were euthanized with CO2. Blood samples were taken by cardiac puncture and kept on ice. Brain and liver samples were collected immediately after bleeding and the samples were kept on dry ice. For calculation of tissue half-lives (t1/2s), the terminal rate constant k was estimated by the absolute value of the slope of a log-linear regression of the terminal phase of the tissue concentration-time profile. The tissue half-life t1/2 is ln(2)/k.
The following table includes t1/2 data for plasma, brain, kidney, and liver obtained after oral administration.
Tissue Half-Life Data for Various Quinazolinone Compounds (PO)

[1] = brain t1/2, 30 mg/kg oral gavage (PO), read-out: Half-Lives (h) Brain (converted)
[2] = liver t1/2, 30 mg/kg oral gavage (PO), read-out: Half-Lives (h) Liver (converted)
[3] = plasma t1/2, 30 mg/kg oral gavage (PO), read-out: Half-Lives (h) Plasma (converted)

SMILES	half-life [1] [h]	half-life [2] [h]	half-life [3] [h]	half-life (kidney t1/2, 30 mg/kg oral gavage (PO), read-out: Half-Lives (h) Kidney (converted)) [h]
COc1ccc(CCn2c(NC3CC3)nc3cc(NC(=N[C@H]4C[C@H]5C[C@@H]([C@@H]4C)C5(C)C)N4CC(=O)N[C@@H](C)C4)ccc3c2=O)c(F)c1 [Example 224, (3S)-N-{2-(cyclopropylamino)-3-[2-(2-fluoro-4-methoxyphenyl)ethyl]-4-oxo-3,4-dihydroquinazolin-7-yl}-3-methyl-5-oxo-N′-[(1S,2S,3S,5R)-2,6,6-trimethylbicyclo[3.1.1]hept-3-yl]piperazine-1-carboximidamide]	10	3.1	3	
COc1ccc(CCn2c(-c3cnccn3)nc3cc(NC(=N[C@H]4C[C@H]5C[C@@H]([C@@H]4C)C5(C)C)N4CCN[C@@H](CF)C4)ccc3c2=O)c(F)c1 [Example 251, (3R)-N-{3-[2-(2-fluoro-4-methoxyphenyl)ethyl]-4-oxo-2-pyrazin-2-yl-3,4-dihydroquinazolin-7-yl}-3-(fluoromethyl)-N′-[(1S,2S,3S,5R)-2,6,6-trimethylbicyclo[3.1.1]hept-3-yl]piperazine-1-carboximidamide]	5.4	6.8	4	8.6
COc1ccc(CCn2c(CN3CCN(C)CC3)nc3cc(NC(=N[C@H]4C[C@H]5C[C@@H]([C@@H]4C)C5(C)C)N4CC(=O)N[C@@H](C)C4)ccc3c2=O)c(F)c1 [Example 239, (3S)-N-{3-[2-(2-fluoro-4-methoxyphenyl)ethyl]-2-[(4-methylpiperazin-1-yl)methyl]-4-oxo-3,4-dihydroquinazolin-7-yl}-3-methyl-5-oxo-N-[(1S,2S,3S,5R)-2,6,6-trimethylbicyclo[3.1.1]hept-3-yl]piperazine-1-carboximidamide]	3.6		4.5	
C[C@@H]1[C@@H](N=C(Nc2ccc3c(=O)n(CCc4ccc(Cl)cc4)c(-c4c[nH]c5ccccc45)nc3c2)N2CC(=O)N[C@@H](C)C2)C[C@H]2C[C@@H]1C2(C)C [Example 236, (3S)-N-[3-[2-(4-chlorophenyl)ethyl]-2-(1H-indol-3-yl)-4-oxo-3,4-dihydroquinazolin-7-yl]-3-methyl-5-oxo-N′-[(1S,2S,3S,5R)-2,6,6-trimethylbicyclo[3.1.1]hept-3-yl]piperazine-1-carboximidamide]		4.2	7.7	
COc1ccc(CCn2c(N3CCOCC3)nc3cc(NC(=N[C@H]4C[C@H]5C[C@@H]([C@@H]4C)C5(C)C)N4CC(=O)N[C@@H](C)C4)ccc3c2=O)c(F)c1 [Example 221, (3S)-N-{3-[2-(2-fluoro-4-methoxyphenyl)ethyl]-2-morpholin-4-yl-4-oxo-3,4-dihydroquinazolin-7-yl}-3-methyl-5-oxo-N′-[(1S,2S,3S,5R)-2,6,6-trimethylbicyclo[3.1.1]hept-3-yl]piperazine-1-carboximidamide]	6.9	2.9	2.9	
COc1ccc(CCn2c(-c3cnccn3)nc3cc(NC(=N[C@H]4C[C@H]5C[C@@H]([C@@H]4C)C5(C)C)N4CCN[C@@H](C(F)F)C4)ccc3c2=O)c(F)c1 [Example 234, (3R)-3-(difluoromethyl)-N-{3-[2-(2-fluoro-4-methoxyphenyl)ethyl]-4-oxo-2-pyrazin-2-yl-3,4-dihydroquinazolin-7-yl}-N′-[(1S,2S,3S,5R)-2,6,6-trimethylbicyclo[3.1.1]hept-3-yl]piperazine-1-carboximidamide]	2.6	4.9	3.5	
COc1ccc(CCn2c(-c3cccnc3)nc3cc(NC(=N[C@H]4C[C@H]5C[C@@H]([C@@H]4C)C5(C)C)N4CCN[C@@H](C(F)F)C4)ccc3c2=O)c(F)c1 [Example 220, (3R)-3-(difluoromethyl)-N-{3-[2-(2-fluoro-4-methoxyphenyl)ethyl]-4-oxo-2-pyridin-3-yl-3,4-dihydroquinazolin-7-yl}-N′-[(1S,2S,3S,5R)-2,6,6-trimethylbicyclo[3.1.1]hept-3-yl]piperazine-1-carboximidamide]	3.1	2.5	2.1	
